Holding throughout (format): cell-based, human
For data set [1], the system named is CD marker expression on the stem cell surface. Kind of data set: Surface CD marker expression by FACS, overall statement. As to conditions: 0.1 mM, 0.5 mM and 1 mM of aspirin, 24 hours. The method, then:
The Vit.C-MSCs cultured in a medium containing vitamin C were cultured for 2 days for adherence and stabilization, and were cultured in fresh RKCM-N media supplemented with aspirin at concentrations of 0.1 mM, 0.5 mM and 1 mM for 24 hours. The CD marker expression on the stem cell surface in the following Table 2 was compared between two types of MSCs, that is, Vit.C-MSCs and ASP-Vit.C-MSCs cultured in aspirin using FACS.
On the technique in general: A flow cytometer gives signals particle by particle.

Data set [2] concerns Vit.C-MSCs. Kind of data set: Characteristics of Vit.C-MSCs cultured in aspirin-containing medium (microscope, Luna automated cell counter). Conditions: aspirin concentration of 1 mM or less, 24 hours. How it is done:
The Vit.C-MSCs cultured in a medium containing vitamin C of Example 1 were incubated for 2 days for adherence and stabilization. Then, the Vit.C-MSCs were cultured in fresh RKCM-N medium supplemented with concentrations of 0.1 mM, 0.5 mM, 1 mM and 10 mM of aspirin for 24 hours. The cell morphologies of Vit.C-MSCs by aspirin were monitored with an […] (100× magnification, Leica DMIL) (FIG. 2), and the proliferation rate, viability and cell size were analyzed using a Luna automated cell counter (Logoy) (FIG. 3).

In data set [3] the test system is Vit.C-MSCs. Kind of data set: Evaluation of toxicity of aspirin on Vit.C-MSCs (cck-8). As to conditions: aspirin concentration of 5 mM or less, 24 hours, cck-8 absorbance at 450 nm.
Protocol: The Vit.C-MSCs cultured in a medium containing vitamin C of Example 1 were seeded on a 96-well cell culture plate at a concentration of 1×10^4 cells/plate, and then incubated overnight for cell adherence and stabilization. Then, the cells were cultured in a fresh RKCM-N medium, that is, keratinocyte-SFM containing 5% FBS, 2 mM NAC, 0.2 mM ascorbic acid, 0.09 mM calcium, 5 ng/ml rEGF, 5 μg/ml insulin and 74 ng/ml hydrocortisone, supplemented with aspirin in various concentrations of 0.005 mM, 0.001 mM, 0.05 mM, 0.1 mM, 0.5 mM, 1 mM, 5 mM and 10 mM, for 24 hours. A cck-8 (cell counting Kit-8, Dojindo) solution (10 μl/100 μl) was added to each well and reacted for 2 hours, and the absorbance at 450 nm was measured using a plate reader (Lonza).

Take `CC(=O)Oc1ccccc1C(=O)O` [aspirin]: in data set [1], the “CD marker expression on the stem cell surface” value is on record as “not changed”. In data set [2], the “cell size of stem cells” value is “did not affect”, the “morphology of stem cells” value is “did not affect”, the “proliferation rate of stem cells” value was “did not affect” and the “viability of stem cells” value is recorded as “did not affect”. Further, the “cytotoxicity of Vit.C-MSCs” value in data set [3] is “almost no cytotoxicity”.
